The text below walks through data of patent US11912794B2, “Modulation of structured polypeptide specificity” (BicycleRD Limited, priority 2011, dated 2024).

Structures are written as SMILES. Numbered stars: 1 amine (or outer) side, 2 acyl side, 3 side chain; on linkers, the order of the positions; unused ones are H or OH. Bridge positions count the residues as written; N and C are the ends. Peptide text beside a SMILES is read from it. TBMB = c1c(C[*:1])cc(C[*:3])cc1C[*:2]

By Ki is commonly meant the equilibrium dissociation constant of an inhibitor or competing ligand from its target. Broadly, the IC50 is the concentration that gives 50% inhibition.

Experiment [1] addresses T1, human plasma Kallikrein (Homo sapiens, UniProt P03952).
T1 construct: purchased Stratech, UK
Nature of the experiment: Functional enzyme inhibition assay, fluorogenic substrate Z-PheArg-AMC. The format is biochemical.

The target in experiment [2] is Monkey plasma Kallikrein (mPK) (Macaca mulatta, UniProt A0A1D5Q7U7). Nature of the experiment: Target specificity, Ki for orthologous protease. Type of experiment: biochemical.
The target in experiment [3] is T2, rat plasma Kallikrein (Rattus norvegicus, UniProt P14272).
T2 construct: polyhistidine tag with proTEV cleavage site (pro-peptide) (N, cleaved yes); made in house; host or cells: HEK-293 (suspension-adapted)
Particulars: highest concentration tested (10 μM); Heinis et al. 2009; cited from earlier work.

In experiment [4] the target is Human factor XIa (hfXIa) (Homo sapiens, UniProt P03951). Particulars: highest concentration tested (10 μM); Heinis et al. 2009; cited from earlier work.
For experiment [5], the target named is Human thrombin (Homo sapiens, UniProt P00734). Particulars: highest concentration tested (10 μM); Heinis et al. 2009; cited from earlier work.
The target of experiment [6] is T2, rat plasma Kallikrein. Nature of the experiment: Functional enzyme inhibition assay, fluorogenic substrate Z-PheArg-AMC. The format is biochemical.

T2 sequence (P14272 391-638 limits assumed): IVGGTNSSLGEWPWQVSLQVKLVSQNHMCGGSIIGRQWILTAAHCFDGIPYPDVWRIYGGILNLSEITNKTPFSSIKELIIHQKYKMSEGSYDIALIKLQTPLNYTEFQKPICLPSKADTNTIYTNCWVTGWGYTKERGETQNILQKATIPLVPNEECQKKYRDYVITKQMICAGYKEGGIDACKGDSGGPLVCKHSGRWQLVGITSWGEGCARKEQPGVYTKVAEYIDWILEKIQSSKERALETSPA
T1 sequence (P03952 20-638): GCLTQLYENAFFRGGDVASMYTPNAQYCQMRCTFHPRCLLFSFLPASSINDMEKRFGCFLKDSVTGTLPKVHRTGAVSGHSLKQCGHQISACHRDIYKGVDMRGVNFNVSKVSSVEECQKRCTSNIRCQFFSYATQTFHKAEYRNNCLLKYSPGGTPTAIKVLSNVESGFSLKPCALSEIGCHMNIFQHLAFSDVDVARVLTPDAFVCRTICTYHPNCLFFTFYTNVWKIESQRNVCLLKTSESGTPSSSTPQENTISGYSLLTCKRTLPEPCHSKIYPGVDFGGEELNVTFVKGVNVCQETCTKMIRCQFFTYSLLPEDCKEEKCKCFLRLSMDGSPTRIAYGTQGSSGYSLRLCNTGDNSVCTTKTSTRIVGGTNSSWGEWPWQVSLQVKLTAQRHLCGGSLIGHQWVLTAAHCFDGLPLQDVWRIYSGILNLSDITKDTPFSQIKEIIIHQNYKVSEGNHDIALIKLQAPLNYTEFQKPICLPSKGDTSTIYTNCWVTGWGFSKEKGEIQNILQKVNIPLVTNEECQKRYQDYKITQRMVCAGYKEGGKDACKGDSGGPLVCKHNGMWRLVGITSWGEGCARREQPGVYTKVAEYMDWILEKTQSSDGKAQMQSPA
Monkey plasma Kallikrein (mPK), sequence (A0A1D5Q7U7 391-638): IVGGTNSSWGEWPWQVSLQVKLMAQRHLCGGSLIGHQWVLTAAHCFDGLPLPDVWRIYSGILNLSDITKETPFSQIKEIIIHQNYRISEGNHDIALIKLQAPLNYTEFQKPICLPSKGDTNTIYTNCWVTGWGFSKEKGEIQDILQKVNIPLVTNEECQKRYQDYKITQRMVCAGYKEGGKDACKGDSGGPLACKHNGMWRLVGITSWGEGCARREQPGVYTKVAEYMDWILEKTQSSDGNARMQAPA
Human factor XIa (hfXIa), sequence (P03951 388-625 limits assumed): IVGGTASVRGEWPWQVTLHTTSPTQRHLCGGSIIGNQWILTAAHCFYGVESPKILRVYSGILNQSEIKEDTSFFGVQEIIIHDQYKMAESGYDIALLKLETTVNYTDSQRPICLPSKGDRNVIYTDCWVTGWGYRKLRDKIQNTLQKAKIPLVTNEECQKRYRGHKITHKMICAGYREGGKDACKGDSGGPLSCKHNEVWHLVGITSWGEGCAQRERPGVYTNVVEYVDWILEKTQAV
Human factor XIa (hfXIa), sequence (P03951 19-387 partner limits assumed): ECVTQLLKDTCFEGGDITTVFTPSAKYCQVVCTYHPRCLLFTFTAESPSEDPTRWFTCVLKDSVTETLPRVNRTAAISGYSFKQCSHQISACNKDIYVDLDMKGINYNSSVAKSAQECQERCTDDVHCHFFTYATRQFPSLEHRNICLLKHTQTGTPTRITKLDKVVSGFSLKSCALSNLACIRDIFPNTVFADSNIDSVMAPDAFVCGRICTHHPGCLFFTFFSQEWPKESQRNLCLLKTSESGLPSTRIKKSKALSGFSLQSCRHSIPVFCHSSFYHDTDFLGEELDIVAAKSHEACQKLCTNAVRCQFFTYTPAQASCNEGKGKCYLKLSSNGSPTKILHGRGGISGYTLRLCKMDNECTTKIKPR

As to `CC(C)C[C@@H]1NC(=O)[C@H](C)NC(=O)[C@H](CCC(=O)O)NC(=O)[C@H](CC(=O)O)NC(=O)[C@H](C)NC(=O)[C@@H]2CCCN2C(=O)[C@@H]2CSCc3cc(cc(c3)CSC[C@@H](C(=O)NCC(N)=O)NC1=O)CSC[C@H](NC(=O)[C@H](C)N)C(=O)N[C@@H](CO)C(=O)N[C@@H](CC(=O)O)C(=O)N[C@@H](CCCNC(=N)N)C(=O)N[C@@H](Cc1ccccc1)C(=O)N[C@@H](CCCNC(=N)N)C(=O)N[C@@H](CC(N)=O)C(=O)N2` [PK15] (H-ACSDRFRNCPADEALCG-NH2; linker 2-9-16 via TBMB), the Ki was found to be 3 nM in experiment [1] (Ki Human plasma kalikrein (hPK), Table 1, means of at least two measurements) and 4 nM in experiment [2]. The “inhibition of rat PK” value in experiment [3] is reported as “did not inhibit”. For the same compound, the “inhibition of human factor XIa (hfXIa)” value in experiment [4] is “did not inhibit”. For the same compound, the inhibition of thrombin entry in experiment [5] is “did not inhibit”.

On to `CC(C)C[C@@H]1NC(=O)[C@H](CC(=O)O)NC(=O)[C@H](CCC(N)=O)NC(=O)[C@H](Cc2c[nH]cn2)NC(=O)[C@H](CC(C)C)NC(=O)[C@@H]2CSCc3cc(cc(c3)CSC[C@@H](C(=O)N[C@@H](C)C(N)=O)NC1=O)CSC[C@H](NC(=O)[C@H](C)N)C(=O)N[C@@H](CO)C(=O)N[C@@H](Cc1c[nH]c3ccccc13)C(=O)N1CCC[C@H]1C(=O)N[C@@H](C)C(=O)N[C@@H](CCCNC(=N)N)C(=O)N2` [Peptide 06-34-18] (H-ACSWPARCLHQDLCA-NH2; linker 2-8-14 via TBMB), for which the IC50 worked out at 0.07 nM in experiment [1] and 0.56 nM in experiment [6].
